Data reported in patent US8629102B2, “3-hydroxyisothiazole 1-oxide derivatives” (Mochida Pharmaceutical Co., Ltd., priority 2011, dated 2014).

What follows are compounds tested against T1, GPR40 of human origin (Homo sapiens, UniProt O14842) (assay: Agonist action on GPR40 of human origin (intracellular Ca2+ change)). Details: CHO cell strain stably expressing GPR40 of human origin; change in Ca2+ concentration, fluorescent calcium indicator.
T1 construct: expressed in transfected cells
Format: cell-based
Method in brief: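 CHO cells stably expressing human GPR40, cultured overnight, then loaded 1 h with Calcium 4 dye plus probenecid in HEPES-buffered HBSS. Compound added in 20 mM HEPES-HBSS; intracellular Ca2+ change read by fluorescence, EC50 from dose-response of fluorescence change.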

T1 sequence (O14842 whole entry): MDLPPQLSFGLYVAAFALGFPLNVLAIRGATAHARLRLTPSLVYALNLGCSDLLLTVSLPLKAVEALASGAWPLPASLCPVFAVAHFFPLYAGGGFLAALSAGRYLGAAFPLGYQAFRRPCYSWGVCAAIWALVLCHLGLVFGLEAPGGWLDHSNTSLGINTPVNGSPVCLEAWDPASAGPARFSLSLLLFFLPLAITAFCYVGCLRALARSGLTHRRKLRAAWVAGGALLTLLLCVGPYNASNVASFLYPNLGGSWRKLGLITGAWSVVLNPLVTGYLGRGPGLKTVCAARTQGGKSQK

EC50, < 300 nM:
NC(=O)c1ccc(-c2cccc3c2CC[C@H]3Oc2ccc(-c3cc(O)n[s+]3[O-])cc2)cn1 (stereo partly drawn) [Example 77, 5-((1R)-1-(4-(3-hydroxy-1-oxidoisothiazole-5-yl)phenoxy)-2,3-dihydro-1H-inden-4-yl)picolinamide]
[O-][s+]1nc(O)cc1-c1ccc(O[C@@H]2CCc3c(-c4ccc(OCC5CC5)nc4)cccc32)cc1 (stereo partly drawn) [Example 78, 5-(4-(((R)-4-(6-(cyclopropylmethoxy)pyridin-3-yl)-2,3-dihydro-1H-inden-1-yl)oxy)phenyl)-3-hydroxyisothiazole 1-oxide]
CC(=O)c1ccc(-c2cccc3c2CC[C@H]3Oc2ccc(-c3cc(O)n[s+]3[O-])cc2)s1 (stereo partly drawn) [Example 79, 1-(5-((1R)-1-(4-(3-hydroxy-1-oxidoisothiazol-5-yl)phenoxy)-2,3-dihydro-1H-inden-4-yl)thiophen-2-yl)ethanone]
[O-][s+]1nc(O)cc1-c1ccc(O[C@@H]2CCc3c(-c4ccc(Cl)s4)cccc32)cc1 (stereo partly drawn) [Example 81, 5-(4-(((R)-4-(5-chlorothiophen-2-yl)-2,3-dihydro-1H-inden-1-yl)oxy)phenyl)-3-hydroxyisothiazole 1-oxide]
[O-][s+]1nc(O)cc1-c1ccc(O[C@@H]2CCc3c(-c4ccsc4)cccc32)cc1 (stereo partly drawn) [Example 82, 3-hydroxy-5-(4-(((R)-4-(thiophen-3-yl)-2,3-dihydro-1H-inden-1-yl)oxy)phenyl)isothiazole 1-oxide]
[O-][s+]1nc(O)cc1-c1ccc(O[C@@H]2CCc3c(Oc4cccc(C(F)(F)F)c4)cccc32)cc1 (stereo partly drawn) [Example 84, 3-hydroxy-5-(4-(((R)-4-(3-(trifluoromethyl)phenoxy)-2,3-dihydro-1H-inden-1-yl)oxy)phenyl)isothiazole 1-oxide]
N#Cc1cccc(Oc2cccc3c2CC[C@H]3Oc2ccc(-c3cc(O)n[s+]3[O-])cc2)c1 (stereo partly drawn) [Example 86, 3-(((1R)-1-(4-(3-hydroxy-1-oxidoisothiazol-5-yl)phenoxy)-2,3-dihydro-1H-inden-4-yl)oxy)benzonitrile]
[O-][s+]1nc(O)cc1-c1ccc(O[C@@H]2CCc3c(Oc4ccc(C(F)(F)F)cc4)cccc32)cc1 (stereo partly drawn) [Example 87, 3-hydroxy-5-(4-(((R)-4-(4-(trifluoromethyl)phenoxy)-2,3-dihydro-1H-inden-1-yl)oxy)phenyl)isothiazole 1-oxide]
[O-][s+]1nc(O)cc1-c1ccc(O[C@@H]2CCc3c(Oc4ccc(CCO)cc4)cccc32)cc1 (stereo partly drawn) [Example 88, 3-hydroxy-5-(4-(((R)-4-(4-(2-hydroxyethyl)phenoxy)-2,3-dihydro-1H-inden-1-yl)oxy)phenyl)isothiazole 1-oxide]
[O-][s+]1nc(O)cc1-c1ccc(O[C@@H]2CCc3c(Oc4cccc(CCO)c4)cccc32)cc1 (stereo partly drawn) [Example 89, 3-hydroxy-5-(4-(((R)-4-(3-(2-hydroxyethyl)phenoxy)-2,3-dihydro-1H-inden-1-yl)oxy)phenyl)isothiazole 1-oxide]
[O-][s+]1nc(O)cc1-c1ccc(O[C@@H]2CCc3c(Oc4ccccc4)cccc32)cc1 (stereo partly drawn) [Example 90, 3-hydroxy-5-(4-(((R)-4-phenoxy-2,3-dihydro-1H-inden-1-yl)oxy)phenyl)isothiazole 1-oxide]
COc1cccc(Oc2cccc3c2CC[C@H]3Oc2ccc(-c3cc(O)n[s+]3[O-])cc2)c1 (stereo partly drawn) [Example 91, 3-hydroxy-5-(4-(((R)-4-(3-methoxyphenoxy)-2,3-dihydro-1H-inden-1-yl)oxy)phenyl)isothiazole 1-oxide]
COc1ccc(Oc2cccc3c2CC[C@H]3Oc2ccc(-c3cc(O)n[s+]3[O-])cc2)cc1 (stereo partly drawn) [Example 92, 3-hydroxy-5-(4-(((R)-4-(4-methoxyphenoxy)-2,3-dihydro-1H-inden-1-yl)oxy)phenyl)isothiazole 1-oxide]
Cc1ccc(Oc2cccc3c2CC[C@H]3Oc2ccc(-c3cc(O)n[s+]3[O-])cc2)cc1 (stereo partly drawn) [Example 93, 3-hydroxy-5-(4-(((R)-4-(p-tolyloxy)-2,3-dihydro-1H-inden-1-yl)oxy)phenyl)isothiazole 1-oxide]
Cc1cccc(Oc2cccc3c2CC[C@H]3Oc2ccc(-c3cc(O)n[s+]3[O-])cc2)c1 (stereo partly drawn) [Example 94, 3-hydroxy-5-(4-(((R)-4-(m-tolyloxy)-2,3-dihydro-1H-inden-1-yl)oxy)phenyl)isothiazole 1-oxide]
Cc1ccccc1Oc1cccc2c1CC[C@H]2Oc1ccc(-c2cc(O)n[s+]2[O-])cc1 (stereo partly drawn) [Example 95, 3-hydroxy-5-(4-(((R)-4-(o-tolyloxy)-2,3-dihydro-1H-inden-1-yl)oxy)phenyl)isothiazole 1-oxide]
Cc1cccc(C)c1Oc1cccc2c1CC[C@H]2Oc1ccc(-c2cc(O)n[s+]2[O-])cc1 (stereo partly drawn) [Example 96, 5-(4-(((R)-4-(2,6-dimethylphenoxy)-2,3-dihydro-1H-inden-1-yl)oxy)phenyl)-3-hydroxyisothiazole 1-oxide]
CC(C)(O)CCOc1ccc(Oc2cccc3c2CC[C@H]3Oc2ccc(-c3cc(O)n[s+]3[O-])cc2)cn1 (stereo partly drawn) [Example 97, 3-hydroxy-5-(4-(((R)-4-((6-(3-hydroxy-3-methylbutoxy)pyridin-3-yl)oxy)-2,3-dihydro-1H-inden-1-yl)oxy)phenyl)isothiazole 1-oxide]
CCOCCOc1ccc(Oc2cccc3c2CC[C@H]3Oc2ccc(-c3cc(O)n[s+]3[O-])cc2)cn1 (stereo partly drawn) [Example 98, 5-(4-(((R)-4-((6-(2-ethoxyethoxy)pyridin-3-yl)oxy)-2,3-dihydro-1H-inden-1-yl)oxy)phenyl)-3-hydroxyisothiazole 1-oxide]
[O-][s+]1nc(O)cc1-c1ccc(O[C@@H]2CCc3c(Oc4cccc(OC(F)(F)F)c4)cccc32)cc1 (stereo partly drawn) [Example 99, 3-hydroxy-5-(4-(((R)-4-(3-(trifluoromethoxy)phenoxy)-2,3-dihydro-1H-inden-1-yl)oxy)phenyl)isothiazole 1-oxide]
COc1ccc(Oc2cccc3c2CC[C@H]3Oc2ccc(-c3cc(O)n[s+]3[O-])cc2)cn1 (stereo partly drawn) [Example 100, 3-hydroxy-5-(4-(((R)-4-((6-methoxypyridin-3-yl)oxy)-2,3-dihydro-1H-inden-1-yl)oxy)phenyl)isothiazole 1-oxide]
Cc1nc(OCCC(C)(C)O)ccc1Oc1cccc2c1CC[C@H]2Oc1ccc(-c2cc(O)n[s+]2[O-])cc1 (stereo partly drawn) [Example 101, 3-hydroxy-5-(4-(((R)-4-((6-(3-hydroxy-3-methylbutoxy)-2-methylpyridin-3-yl)oxy)-2,3-dihydro-1H-inden-1-yl)oxy)phenyl)isothiazole 1-oxide]
CCOCCOc1ccc(Oc2cccc3c2CC[C@H]3Oc2ccc(-c3cc(O)n[s+]3[O-])cc2)c(C)n1 (stereo partly drawn) [Example 102, 5-(4-(((R)-4-((6-(2-ethoxyethoxy)-2-methylpyridin-3-yl)oxy)-2,3-dihydro-1H-inden-1-yl)oxy)phenyl)-3-hydroxyisothiazole 1-oxide]
[O-][s+]1nc(O)cc1-c1ccc(O[C@@H]2CCc3c(Oc4ccc(OC(F)(F)F)cc4)cccc32)cc1 (stereo partly drawn) [Example 103, 3-hydroxy-5-(4-(((R)-4-(4-(trifluoromethoxy)phenoxy)-2,3-dihydro-1H-inden-1-yl)oxy)phenyl)isothiazole 1-oxide]
[O-][s+]1nc(O)cc1-c1ccc(O[C@@H]2CCc3c(Oc4cnc5ccccc5c4)cccc32)cc1 (stereo partly drawn) [Example 104, 3-hydroxy-5-(4-(((R)-4-(quinolin-3-yloxy)-2,3-dihydro-1H-inden-1-yl)oxy)phenyl)isothiazole 1-oxide]
COc1cc(C)c(Oc2cccc3c2CC[C@H]3Oc2ccc(-c3cc(O)n[s+]3[O-])cc2)cn1 (stereo partly drawn) [Example 105, 3-hydroxy-5-(4-(((R)-4-((6-methoxy-4-methylpyridin-3-yl)oxy)-2,3-dihydro-1H-inden-1-yl)oxy)phenyl)isothiazole 1-oxide]
COc1ccc(Oc2cccc3c2CC[C@H]3Oc2ccc(-c3cc(O)n[s+]3[O-])cc2)c(C)n1 (stereo partly drawn) [Example 106, 3-hydroxy-5-(4-(((R)-4-((6-methoxy-2-methylpyridin-3-yl)oxy)-2,3-dihydro-1H-inden-1-yl)oxy)phenyl)isothiazole 1-oxide]
CS(=O)(=O)c1ccc(Oc2cccc3c2CC[C@H]3Oc2ccc(-c3cc(O)n[s+]3[O-])cc2)cc1 (stereo partly drawn) [Example 107, 3-hydroxy-5-(4-(((R)-4-(4-(methylsulfonyl)phenoxy)-2,3-dihydro-1H-inden-1-yl)oxy)phenyl)isothiazole 1-oxide]
CCOCCOc1cc(C)c(Oc2cccc3c2CC[C@H]3Oc2ccc(-c3cc(O)n[s+]3[O-])cc2)c(C)c1 (stereo partly drawn) [Example 108, 5-(4-(((R)-4-(4-(2-ethoxyethoxy)-2,6-dimethylphenoxy)-2,3-dihydro-1H-inden-1-yl)oxy)phenyl)-3-hydroxyisothiazole 1-oxide]
[O-][s+]1nc(O)cc1-c1ccc(O[C@@H]2CCc3c(Oc4ccc(N5CCOCC5)nc4)cccc32)cc1 (stereo partly drawn) [Example 109, 3-hydroxy-5-(4-(((R)-4-((6-morpholinopyridin-3-yl)oxy)-2,3-dihydro-1H-inden-1-yl)oxy)phenyl)isothiazole 1-oxide]
COc1ncc(Oc2cccc3c2CC[C@H]3Oc2ccc(-c3cc(O)n[s+]3[O-])cc2)cn1 (stereo partly drawn) [Example 110, 3-hydroxy-5-(4-(((R)-4-((2-methoxypyrimidin-5-yl)oxy)-2,3-dihydro-1H-inden-1-yl)oxy)phenyl)isothiazole 1-oxide]
